pEC50: −log10 of the molar value.
Tests used:
human TLR8 = target: T1, human TLR8 (Homo sapiens, UniProt Q9NR97); experiment: HEK-Blue hTLR8 SEAP reporter gene agonism assay; assay type: cell-based; conditions: HEK-Blue hTLR8 cells, SEAP (Quanti-blue, 650 nm), 16-22 hours incubation
T1 construct: host or cells: HEK-Blue hTLR8 (HEK293-derived reporter cells)
T1 sequence (Q9NR97 27-1041): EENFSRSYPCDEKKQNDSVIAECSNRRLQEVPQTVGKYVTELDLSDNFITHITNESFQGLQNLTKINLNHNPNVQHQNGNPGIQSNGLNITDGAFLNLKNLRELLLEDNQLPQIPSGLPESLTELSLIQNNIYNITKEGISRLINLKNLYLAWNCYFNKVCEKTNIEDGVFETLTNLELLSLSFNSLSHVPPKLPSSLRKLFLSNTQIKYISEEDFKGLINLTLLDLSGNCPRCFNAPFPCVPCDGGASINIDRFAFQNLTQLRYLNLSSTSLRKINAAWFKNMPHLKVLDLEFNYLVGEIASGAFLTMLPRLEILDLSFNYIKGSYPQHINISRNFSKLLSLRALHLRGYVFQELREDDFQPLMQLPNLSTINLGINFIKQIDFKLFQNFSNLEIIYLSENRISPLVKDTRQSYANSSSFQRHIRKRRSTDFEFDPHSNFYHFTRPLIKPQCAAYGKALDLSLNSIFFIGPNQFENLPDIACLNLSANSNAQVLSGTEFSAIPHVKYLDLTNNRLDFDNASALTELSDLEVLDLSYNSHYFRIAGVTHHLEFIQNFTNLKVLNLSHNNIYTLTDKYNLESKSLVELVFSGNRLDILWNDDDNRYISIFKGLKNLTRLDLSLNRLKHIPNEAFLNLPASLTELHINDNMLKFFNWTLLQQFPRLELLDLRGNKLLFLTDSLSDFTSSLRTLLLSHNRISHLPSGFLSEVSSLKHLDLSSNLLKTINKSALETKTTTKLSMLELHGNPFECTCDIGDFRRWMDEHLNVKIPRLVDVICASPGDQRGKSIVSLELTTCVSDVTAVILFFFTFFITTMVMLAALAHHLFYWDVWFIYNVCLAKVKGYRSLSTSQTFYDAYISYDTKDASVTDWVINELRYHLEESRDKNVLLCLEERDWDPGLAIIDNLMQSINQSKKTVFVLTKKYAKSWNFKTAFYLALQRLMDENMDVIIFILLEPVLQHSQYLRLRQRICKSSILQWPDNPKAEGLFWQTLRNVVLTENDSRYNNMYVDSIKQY
Description: (§1) The agonistic activity of the compounds of the present invention on TLR7 or TLR8 was evaluated using HEK-Blue™ cells stably expressing human TLR7 or TLR8. And the agonistic activity was assayed using their ability to induce the SEAP reporter gene under the control of the IFN-β minimal promoter fused to five NF-κB and ap-1 binding sites, specifically as follows:
(§2) HEK-Blue™ hTLR7 (Invivogen, 80,000 cells per well) or HEK-Blue™ hTLR8 (Invivogen, 60,000 cells per well) was added to a 96-well cell culture plate, the compound to be tested is added whereafter, and the final concentration of the compound(s) to be tested in the medium ranged from 0.001 to 36 μM, then incubated for 16-22 hours. SEAP levels in the cell culture medium were detected using HEK-Blue assay reagent Quanti-blue (Invivogen) according to the manufacturer's instructions. Neo2 Multifunctional Enzyme Labeler (Bio-tek) was used to determine the light absorption at 650 nm. GraphPad Prism was utilized to calculate the EC50, which is the half effective concentration of the drug.

human TLR7 = target: T2, human TLR7 (Homo sapiens, UniProt Q9NYK1); experiment: HEK-Blue hTLR7 SEAP reporter gene agonism assay; assay type: cell-based; conditions: HEK-Blue hTLR7 cells, SEAP (Quanti-blue, 650 nm), 16-22 hours incubation
T2 construct: host or cells: HEK-Blue hTLR7 (HEK293-derived reporter cells)
T2 sequence (Q9NYK1 27-1049): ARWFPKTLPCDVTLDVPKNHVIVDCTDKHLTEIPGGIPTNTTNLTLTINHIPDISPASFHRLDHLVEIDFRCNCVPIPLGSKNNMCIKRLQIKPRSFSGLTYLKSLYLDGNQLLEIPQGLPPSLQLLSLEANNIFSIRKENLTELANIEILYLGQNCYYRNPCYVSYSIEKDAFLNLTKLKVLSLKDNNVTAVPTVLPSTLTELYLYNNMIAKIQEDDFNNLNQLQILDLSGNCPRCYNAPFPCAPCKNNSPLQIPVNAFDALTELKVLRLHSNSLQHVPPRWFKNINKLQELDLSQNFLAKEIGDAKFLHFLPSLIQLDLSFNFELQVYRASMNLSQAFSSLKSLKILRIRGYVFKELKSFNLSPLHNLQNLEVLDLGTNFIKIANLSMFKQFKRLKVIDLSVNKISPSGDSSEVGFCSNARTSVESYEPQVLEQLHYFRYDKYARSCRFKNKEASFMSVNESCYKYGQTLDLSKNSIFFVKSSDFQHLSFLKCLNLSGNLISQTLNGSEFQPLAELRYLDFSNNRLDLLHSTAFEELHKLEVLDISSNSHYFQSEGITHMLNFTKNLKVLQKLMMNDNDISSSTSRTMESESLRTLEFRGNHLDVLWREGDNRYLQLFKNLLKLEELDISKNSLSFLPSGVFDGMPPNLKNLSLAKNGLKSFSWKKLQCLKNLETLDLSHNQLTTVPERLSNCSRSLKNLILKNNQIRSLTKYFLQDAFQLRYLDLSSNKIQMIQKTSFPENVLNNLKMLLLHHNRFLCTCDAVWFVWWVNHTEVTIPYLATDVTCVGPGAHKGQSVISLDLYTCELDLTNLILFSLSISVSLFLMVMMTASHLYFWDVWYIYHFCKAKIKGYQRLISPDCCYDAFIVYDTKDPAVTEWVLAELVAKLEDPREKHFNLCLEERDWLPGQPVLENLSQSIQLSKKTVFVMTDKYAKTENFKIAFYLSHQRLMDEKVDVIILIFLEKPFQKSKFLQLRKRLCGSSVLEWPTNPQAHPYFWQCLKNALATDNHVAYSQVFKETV
Description: as §1, §2

| Structure (SMILES) | pEC50 (human TLR8) | pEC50 (human TLR7) |
| --- | --- | --- |
| CCCCNc1nc(N)nc2cnn(Cc3ccc(OCCNC)cc3)c(=O)c12 [Compound I-19, 2-amino-4-(butylamino)-6-(4-(2-(methylamino)ethoxy)benzyl)pyrimido[4,5-d]pyridazin-5(6H)-one] | 6.83 | 6.04 |
| CCC[C@@H](C)Nc1nc(N)nc2cnn(Cc3ccc(C(=O)N4CCNCC4)cc3OC)c(=O)c12 [Compound I-24, (R)-2-amino-6-(2-methoxy-4-(piperazine-1-carbonyl)benzyl)-4-(pentan-2-ylamino)pyrimido[4,5-d]pyridazin-5(6H)-one] | 6.71 | 6.20 |
| CCC[C@@H](C)Nc1nc(N)nc2cnn(Cc3ccc(CN4CCCC4)cc3OC)c(=O)c12 [Compound I-25, (R)-2-amino-6-(2-methoxy-4-(pyrrolidin-1-ylmethyl)benzyl)-4-(pentan-2-ylamino)pyrimido[4,5-d]pyridazin-5(6H)-one] | 6.83 | 6.20 |
| CCC[C@@H](C)Nc1nc(N)nc2cnn(Cc3ccc(OCCNC)cc3)c(=O)c12 [Compound I-39, (R)-2-amino-6-(4-(2-(methylamino)ethoxy)benzyl)-4-(pentan-2-ylamino)pyrimido[4,5-d]pyridazin-5(6H)-one] | 6.74 | 6.19 |
| CCC[C@@H](C)Nc1nc(N)nc2cnn(Cc3ccc(CN4CCCC4)cc3)c(=O)c12 [Compound I-40, (R)-2-amino-4-(pentan-2-ylamino)-6-(4-(pyrrolidin-1-ylmethyl)benzyl)pyrimido[4,5-d]pyridazin-5(6H)-one] | 7.08 | 6.05 |
| CCC[C@@H](C)Nc1nc(N)nc2cnn(Cc3ccc(OCCNC)nc3)c(=O)c12 [Compound I-47, (R)-2-amino-6-((6-(2-(methylamino)ethoxy)pyridin-3-yl)methyl)-4-(pentan-2-ylamino)pyrimido[4,5-d]pyridazin-5(6H)-one] | 7.15 | 6.45 |
| CCC[C@@H](C)Nc1nc(N)nc2cnn(Cc3ccc(CN4CCN(C)CC4)cc3)c(=O)c12 [Compound I-48, (R)-2-amino-6-(4-((4-methylpiperazin-1-yl)methyl)benzyl)-4-(pentan-2-ylamino)pyrimido[4,5-d]pyridazin-5(6H)-one] | 6.69 | 6.04 |
| CCC[C@@H](C)Nc1nc(N)nc2cnn(Cc3ccc(CN(C)CCO)cc3)c(=O)c12 [Compound I-49] | 7.14 | 6.02 |
| CCC[C@@H](C)Nc1nc(N)nc2cnn(Cc3ccc(CN4CCNCC4)cc3)c(=O)c12 [Compound I-50, (R)-2-amino-4-(pentan-2-ylamino)-6-(4-(piperazin-1-ylmethyl)benzyl)pyrimido[4,5-d]pyridazin-5(6H)-one] | 6.80 | 6.11 |
| CCCN[C@H](C)c1ccc(Cn2ncc3nc(N)nc(N[C@H](C)CCC)c3c2=O)cc1 [Compound I-51, 2-amino-4-(((R)-pentan-2-yl)amino)-6-(4-((R)-1-(propylamino)ethyl)benzyl)pyrimido[4,5-d]pyridazine-5(6H)-one] | 6.85 | 6.05 |
| CCCN[C@@H](C)c1ccc(Cn2ncc3nc(N)nc(N[C@H](C)CCC)c3c2=O)cc1 [Compound I-52, 2-amino-4-(((R)-pentan-2-yl)amino)-6-(4-((S)-1-(propylamino)ethyl)benzyl)pyrimido[4,5-d]pyridazine-5(6H)-one] | 6.90 | 6.11 |
| CCC[C@@H](C)Nc1nc(N)nc2cnn(Cc3ccc(OCCNC)nc3OC)c(=O)c12 [Compound I-53, (R)-2-amino-6-((2-methoxy-6-(2-(methylamino)ethoxy)pyridin-3-yl)methyl)-4-(pentan-2-ylamino)pyrimido[4,5-d]pyridazin-5(6H)-one] | 6.76 | 6.22 |
| CCC[C@@H](C)Nc1nc(N)nc2cnn(Cc3ccc(C4CCN(C)CC4)cc3)c(=O)c12 [Compound I-57, (R)-2-amino-6-(4-(1-methylpiperidin-4-yl)benzyl)-4-(pentan-2-ylamino)pyrimido[4,5-d]pyridazin-5(6H)-one] | 6.97 | 6.39 |

From patent publication US20250195524A1, “PYRIMIDO-PYRIDAZINONE COMPOUND AS TOLL-LIKE RECEPTOR AGONIST” (SHANGHAI VISONPHARMA CO., LTD., priority 2022, published 2025)
